This note sets out measurements from patent US20070264679A1, “Method for analyzing the activity of lipoxygenase using a water-soluble substrate” (Chungnam National University Industry Collaboration …, priority 2006, published 2007).

The term Km denotes the substrate concentration at which the rate is half of its maximum.

Experiment [1] has as its target T1, soybean LOX-1 (Glycine max, UniProt P08170).
T1 construct: purchased Sigma-Aldrich Corp (St. Louis, Mo., USA) lipoxidase Type I-B
T1 sequence (P08170 1-839): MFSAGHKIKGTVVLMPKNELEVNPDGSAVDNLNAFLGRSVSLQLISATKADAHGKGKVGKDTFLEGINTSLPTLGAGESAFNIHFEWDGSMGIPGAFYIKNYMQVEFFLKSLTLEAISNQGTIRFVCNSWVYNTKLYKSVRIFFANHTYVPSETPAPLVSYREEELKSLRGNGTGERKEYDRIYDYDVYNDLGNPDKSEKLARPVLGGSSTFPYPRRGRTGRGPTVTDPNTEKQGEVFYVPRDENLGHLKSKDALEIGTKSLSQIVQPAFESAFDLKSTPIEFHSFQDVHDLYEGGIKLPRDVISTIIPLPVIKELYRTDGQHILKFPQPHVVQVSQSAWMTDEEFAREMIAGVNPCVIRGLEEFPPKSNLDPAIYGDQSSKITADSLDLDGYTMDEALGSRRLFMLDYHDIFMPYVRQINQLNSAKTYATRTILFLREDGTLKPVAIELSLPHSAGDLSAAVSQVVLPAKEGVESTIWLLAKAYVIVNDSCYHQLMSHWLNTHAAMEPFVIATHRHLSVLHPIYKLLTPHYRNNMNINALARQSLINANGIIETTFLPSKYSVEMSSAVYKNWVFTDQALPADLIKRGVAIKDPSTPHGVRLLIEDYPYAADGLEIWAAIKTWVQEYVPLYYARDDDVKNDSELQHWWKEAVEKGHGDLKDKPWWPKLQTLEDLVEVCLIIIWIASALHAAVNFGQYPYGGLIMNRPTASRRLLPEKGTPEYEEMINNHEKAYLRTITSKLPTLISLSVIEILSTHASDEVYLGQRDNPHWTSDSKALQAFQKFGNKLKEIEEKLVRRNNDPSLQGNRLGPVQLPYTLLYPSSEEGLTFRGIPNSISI
Description: Kinetics of oxygenation of arachidonic acid or arachidonoyl-lysophospholipids by soybean LOX-1. Conditions: soybean LOX-1 2.5 units/ml; for Km: 50 mM borax buffer pH 9.0, 25° C.; for Vm: 50 mM borax buffer pH 9.0, unit = one nanomole conjugated diene per min. In kind it is biochemical. The method, then: Activities of various LOXs were monitored by measuring the increase in absorbance at 234 nm due to the formation of hydroperoxide (ε234=25,000 M^−1 cm^−1) at 25° C. as described before (Smith et al, J. Biol. Chem. 247 (1972) 1038-1047). One unit is defined as the amount of LOXs that can produce one nanomole of conjugated diene per min. The reaction mixture (500 μl) included reticulocyte LOX (2 units/ml) in 50 mM phosphate buffer (pH 7.4), porcine leukocyte LOX (1 unit/ml) in 100 mM phosphate buffer (pH 7.5) containing 5 mM EDTA and 0.03% Tween 20, or soybean LOX-1 (2.5 units/ml) in 50 mM borax buffer (pH 9.0) at 25° C. The reactions were started by including each substrate (100 μM) into the above reaction mixture.
Reticulocyte LOX (2 units/ml), leukocyte LOX (1 units/ml) or soybean LOX-1 (2.5 units/ml) was incubated with each arachidonoyl derivative substrate of various concentrations as described above. The values of kinetic parameters were obtained according to Lineweaver Burke plot analyses as described before (Barroso et al, J. Chromatogr. B. Analyt. Technol. Biomed. Life. Sci. 814 (2005) 21-28).

The target of experiment [2] is T2, Reticulocyte LOX (Oryctolagus cuniculus, UniProt P12530).
T2 construct: purchased Biomol Inc. (Plymouth Meeting, Pa., USA)
T2 sequence (P12530 1-663): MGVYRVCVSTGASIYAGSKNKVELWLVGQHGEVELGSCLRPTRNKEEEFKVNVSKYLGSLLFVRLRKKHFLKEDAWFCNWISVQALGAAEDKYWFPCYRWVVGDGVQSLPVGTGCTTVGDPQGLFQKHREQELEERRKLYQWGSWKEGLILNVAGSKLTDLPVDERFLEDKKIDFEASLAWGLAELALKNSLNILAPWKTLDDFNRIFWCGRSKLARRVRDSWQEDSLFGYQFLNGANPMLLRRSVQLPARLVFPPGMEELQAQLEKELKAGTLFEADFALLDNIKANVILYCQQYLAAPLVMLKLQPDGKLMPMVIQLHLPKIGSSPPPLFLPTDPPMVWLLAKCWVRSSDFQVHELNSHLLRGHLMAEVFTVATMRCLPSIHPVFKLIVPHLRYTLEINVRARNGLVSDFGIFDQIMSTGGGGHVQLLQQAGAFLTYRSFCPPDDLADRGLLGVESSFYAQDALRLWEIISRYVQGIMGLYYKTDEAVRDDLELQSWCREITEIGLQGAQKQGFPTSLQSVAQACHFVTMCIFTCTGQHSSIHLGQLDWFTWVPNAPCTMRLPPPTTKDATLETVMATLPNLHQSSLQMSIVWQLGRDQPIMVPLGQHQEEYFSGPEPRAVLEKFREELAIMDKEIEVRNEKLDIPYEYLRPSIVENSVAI
Description: Kinetics of oxygenation of linoleoylated substrates by reticulocyte LOX. In kind it is biochemical, Rabbit. Conditions: reticulocyte LOX 8.2 units/ml, 50 mM phosphate buffer pH 7.4, 25° C.; for Km: substrate 3-100 μM. From the text: Data were expressed as means ±S.D. of results from at least three independent experiments.

Experiment [3] has as its target T3, soybean lipoxygenase-1 (LOX-1) (Glycine max, UniProt P08170).
T3 construct: purchased Sigma-Aldrich Corp (St. Louis, Mo., USA) lipoxidase Type I-B
T3 sequence (P08170 1-839): T1 sequence (P08170 1-839)
Description: Kinetics of oxygenation of linoleic acid, soybean lysoPC or linoleoyl-lysoPC by soybean LOX-1 (absorbance at 234 nm). In kind it is biochemical. As to conditions: for Km: 50 mM borax buffer pH 9.0, 25° C., Lineweaver Burke plot; for Vm: soybean LOX-1, 50 mM borax buffer pH 9.0, 25° C., unit = one micromole conjugated diene per min. As to the method: Lipoxygenase-1 (LOX-1) activity was monitored at 25° C. by measuring the increase in absorbance at 234 nm due to the formation of hydroperoxide (ε234=25,000 M^−1 cm^−1) as previously reported (Axelrod et al, Methods Enzymol. 71 (1981) 441-451; Egmond et al, Eur. J. Biochem. 61 (1976) 93-100). […] One unit is defined as the amount of LOX-1 that can produce one micromole of conjugated diene per min.
LOX-1 was purified from soy bean lipoxidase preparation (Type I-B) according to the method of Finazzi Agro et al (Finazzi-Agro et al, Biochim. Biophys. Acta 326 (1973) 462-470). Briefly, soybean LOX-1 (100 mg) was dissolved in 0.1 M phosphate buffer (pH 6.8), and applied to DEAE Sephacel (1.5×25 cm). […] Protein amount was determined according to Lowry method (O. H. Lowry, N. J. Rosenbrough, A. L. Farr, R. J. Randall, J. Biol. Chem. 193 (1951) 265-275).
Next, the effect of linoleoyl-lysoPC concentration on LOX-1-catalyzed oxygenation of linoleoyl-lysoPC was examined.

In the case of `CCCCC/C=C\C/C=C\C/C=C\C/C=C\CCCC(=O)OCC(O)COP(=O)([O-])OCC[N+](C)(C)C` (stereo not shown) [Arachidonoyl-lysoPC, 1-Arachidonoyl lysophosphatidylcholine], in experiment [1], the Km came to 5.37 ± 1.6 µM and the Vm was 97.0 ± 8.2 units/μg. Further, in experiment [1] (listed as arachidonoyl-lysoPC), the Michaelis-Menten constant (Km) was 5.4 µM and the Vm is reported as 97.0 units/μg.

For `CCCCC/C=C\C/C=C\CCCCCCCC(=O)OCC(O)COP(=O)([O-])OCC[N+](C)(C)C` (stereo not shown) [Linoleoyl-lysoPC, 1-linoleoyl Lysophosphatidylcholine], the figures for the Vm in experiment [2], in experiment [3] and in experiment [3] (listed as linoleoyl-lysoPC) were 1622 ± 19 units/mg, 167.5 ± 10.4 units/mg and 167.5 units/mg, respectively. Also, the results for the Km in experiment [2] and in experiment [3] were 17.5 ± 0.9 µM and 12.9 µM, respectively.

With `CCCCC/C=C\C/C=C\CCCCCCCC(=O)O` [Linoleic acid, linoleic acid], the values for the Vm in experiment [2] and in experiment [3] were 545 ± 5 units/mg and 114.3 ± 6.0 units/mg, respectively. The Km in experiment [2] was determined as 12.1 ± 0.8 µM; in experiment [3], 12 ± 0.7 µM.
